According to patent US20080071190A1, “Timing of Ovulation Based on Vaginal Ph” (priority 2004, published 2008):
Marks after values point to notes of the source that are not given here.

How the values were obtained:
hECE cells = experiment: Cell-vitality staining (MTT assay); assay type: cell-based, human; conditions: for hECE cell vitality (MTT staining normalized to OD570 of control unperturbed cells), Baseline / hECE cell vitality (MTT staining normalized to OD570 of control unperturbed cells), 30 min pHo: means ±SD; for hECE cell vitality (MTT staining normalized to OD570 of control unperturbed cells), 30 min pHo: after 30 min pHo measurement
Description: Cell-vitality staining was done using the 3-[4,5-dimethylthiazol-2-yl]-2,5-diphenyl tetrazolium bromide (MTT) assay. MTT serves as a substrate for mitochondrial dehydrogenases, and only viable functional mitochondria are capable of cleaving MTT to generate the colored product formazan. MTT solution was prepared by dissolving MTT at a concentration of 5 mg/ml in phosphate-buffered saline (PBS) composed of (mM) NaCl (137), KCl (2.68), Na2HPO4 (10), KH2PO4 (1.76), pH 7.4, and filtering the solution through Millipore filter. Following treatments/assays, cells on filters were washed with fresh and warm (37° C.) PBS and incubated for 60 min at 37° C. in MTT solution. At the completion of incubation, cells were washed with PBS, and solubilized in isopropanol containing 0.1 M HCl plus 1% Triton X-100. Lysates were mixed by pipetting to dissolve the reduced MTT crystals (during which time the colorless solution turned purple) and were spinned at 10,000 g for 5 min. The solubilized formazan was measured by determining absorption at 570 nm. Background absorbance at 690 nm was subtracted for each sample, and values were normalized to OD570 (optic density) of control unperturbed cells.

[1] = system: hECE cells (Human Ectocervical-Vaginal Epithelial Cells); experiment: Determinations of extracellular pH (pHo) in luminal and contra-luminal solutions of hECE cells cultured on filters; assay type: cell-based; conditions: for effect of co-treatment on estrogen-induced decrease in luminal pHo: hECE cells in steroid-free medium + 10 nM 17β-estradiol; for effect of co-treatment on estrogen-induced decrease in luminal pHo / effect on contra-luminal pHo: tamoxifen 10 μM; for effect of co-treatment on estrogen-induced decrease in luminal pHo / effect on luminal pHo, alone / effect on contra-luminal pHo: ICI-182780 10 μM; for effect of co-treatment on estrogen-induced decrease in luminal pHo / effect on luminal pHo, alone: progesterone 1 μM; for effect on luminal pHo, alone: without 17β-estradiol; for effect on contra-luminal pHo: progesterone 1 μM (not shown); for effect on estrogen-induced acidification of the luminal pHo: 10 nM 17β-estradiol, 30 min pre-treatment, bafilomycin A1 1 μM, ouabain 1 μM (contra-luminal), omeprazol 100 μM, FIG. 10; for effect on luminal pHo (specificity of estrogen effect): hormone at 10 nM, FIG. 8A
Description: Referring to FIG. 4A, hECE cells or Human Endocervical Cells were plated on Anocell filters (Anocel™-10, Oxon, UK, obtained through Sigma Chemicals, St. Louis, Mo.), which are ceramic-base filters, pore size of 0.02 μm width, 50 μm depth, and surface area of 0.6 cm^2. Filters 300 and 302 were coated with 4 μg/cm^2 collagen type IV and incubated at 37° C. overnight. The remaining collagen solution was aspirated and the filter was dried at 37° C. Before plating, filters 300 were rinsed 3 times with Hanks' Balanced Salt Solution. Cells were plated either on the upper surface 302 of one filter 300 (for determinations of luminal pHo) or on the bottom surface 304 of the other filter 300 (for determinations of the contra-luminal pHo) at 3·10^5 cells/cm^2. By plating at this relatively high density the cultures became confluent within 12 hours after plating.
Plates containing the filters were placed in a tissue culture incubator (37° C.), and pHo changes in the luminal and contra-luminal solutions were determined using AMANI-1000 microcombination pH electrodes 306 (Harvard Apparatus, Holliston, Mass., obtained through Genomics Solutions, Ann Harbor, Mich.). The AMANI-1000 pH sensor (stored in pH 7.0) is based on metal-metal oxide pH measurements and the pH sensitive layer is immobilized on plastic. The reference electrode employs an Ag/AgCl in 3.4 M KCl reference electrode, and the reference electrode junction is leak-free ensuring no leaks of KCl out of the reference electrode. The design of the pH electrodes 306 enabled their use for the purpose of the present experiments: tip diameter of 1 mm, depth of immersion 1 mm, and response time of less than 5 sec.
Electrodes 306 attached to a stand were held stable with the tip immersed in the solution within the upper compartment of the filter to a depth of about 2 mm avoiding direct contact between the electrode tip and the cultured cells. The electrodes were connected directly to a pH meter 310 (e.g., Accumet pH meter 910) (Fisher Scientific, Suwanee Ga.). After stabilization, the luminal and contraluminal solutions were gently aspirated using glass pipette, and replaced with fresh warmed (37° C.) Basic Salt Solution containing (in mM) NaCl (140), KCl (5), MgCl2 (1), CaCl2 (1), glucose (10), and 0.1% bovine serum albumin, pH 7.4. The volumes in the luminal and contraluminal compartments were 150 μl and 500 μl, respectively. Determinations of changes in pHo were made at time 0, and at 5 min intervals thereafter for up to 30 min.
To remove intracellular estrogens cells were grown in steroid-free medium as described. This procedure involved shifting cells on filters for three days prior to pHo assays to a medium composed of phenol-red-deficient (DMEM)/Ham's F12 or (Sigma Chemicals, St. Louis, Mo.) containing 8% heat inactivated fetal bovine serum that was previously treated with charcoal to remove steroids. Preparation of charcoal-treated serum was described; briefly, dextran-coated charcoal (Sigma Chemicals, St. Louis, Mo.) was dissolved at 8% in 0.15 M NaCl, autoclaved, mixed by stirring, spun and the pellet was resuspended as 1 gm/1.25 ml in H2O. Fetal bovine serum (Hyclone, Logan, Utah) was mixed with the activated charcoal-dextran at 20:1 (Vol:Vol) and incubated for 45 min at 55° C. At the completion of incubation the mixture was spun twice at 800 g for 20 min and the supernatant (serum) was decanted and collected. For experiments, cells were shifted to steroid-free medium for 3 days; alternatively, cells were shifted to the steroid-free medium for 24 hrs and treated with 17β-estradiol for two additional days.

[2] = Steroid-Free Medium + 10 nM 17β-Estradiol + substance at the concentration given
[3] = Steroid-Free Medium + substance, 3 to 4 repeats
[4] = hECE cells in steroid-free medium
[5] = hECE cells, steroid-free medium + estradiol, 1 μM for 30 min added to the luminal solution

SMILES | hECE cell vitality (MTT staining normalized to OD570 of control unperturbed cells), Baseline (hECE cells; [2]) | hECE cell vitality (MTT staining normalized to OD570 of control unperturbed cells), 30 min pHo (hECE cells; [2]) | hECE cell vitality (MTT staining normalized to OD570 of control unperturbed cells), Baseline (hECE cells; [3]) | hECE cell vitality (MTT staining normalized to OD570 of control unperturbed cells), 30 min pHo (hECE cells; [3]) | effect of co-treatment on estrogen-induced decrease in luminal pHo [1] | effect on contra-luminal pHo ([1]; hECE cells) | effect on estrogen-induced acidification of the luminal pHo ([1]; hECE cells) | also measured
[Cl][Cd][Cl] [CdCl2] | 95 ± 2% | 95 ± 3% | 94 ± 2% | 95 ± 9% | – | – | – | –
O=C(O)CN(CCOCCOCCN(CC(=O)O)CC(=O)O)CC(=O)O [EGTA] | – | – | – | – | – | – | – | effect on contra-luminal solution ([1]; hECE cells, 1.2 mM EGTA plus 1.2 mM CdCl2 in luminal and contra-luminal solutions): acidification of the contra-luminal solution; effect on luminal acidification ([1]; hECE cells, 1.2 mM EGTA plus 1.2 mM CdCl2 in luminal and contra-luminal solutions (extracellular calcium <0.1 mM)): blocked the luminal acidification; luminal pHo and contra-luminal pHo ([1]; hECE cells, following treatment with 1.2 mM EGTA (plus 1.2 mM CdCl2)): ~7.2
C[C@]12CC[C@@H]3c4ccc(O)cc4C[C@@H](CCCCCCCCC[S+]([O-])CCCC(F)(F)C(F)(F)F)[C@H]3[C@@H]1CC[C@@H]2O (some centres unmarked) [ICI-182780] | 89 ± 9% | 93 ± 6% | 95 ± 8% | 95 ± 3% | blocked | Neither tamoxifen ICI-182780 or progesterone had any appreciable effect | – | effect on luminal pHo, alone [1, 4]: no effect
CO/C1=C\C(C)=C\[C@@H](C)[C@@H](O)[C@@H](C)C/C(C)=C/C=C/[C@H](OC)[C@@H]([C@@H](C)[C@@H](O)[C@H](C)[C@@]2(O)C[C@@H](O)[C@H](C)[C@@H](C(C)C)O2)OC1=O [bafilomycin A1] | 93 ± 7% | 92 ± 5% | 94 ± 3% | 95 ± 4% | – | – | blocked | effect on the contra-luminal or luminal pHo ([1]; hECE cells, steroid-free medium + estradiol, 1 μM for 30 min added to the contra-luminal solution): no effect; effect on luminal pHo [1, 5]: significantly blocked the estrogen-decrease in luminal pHo; effect on the contra-luminal pHo [1, 5]: little effect
CC/C(=C(/CC)c1ccc(O)cc1)c1ccc(O)cc1 [diethylstilbestrol] | – | – | – | – | – | – | – | effect on luminal pHo (specificity of estrogen effect) [1, 4]: could mimic 17β-estradiol decrease in luminal pHo
COc1ccc2[nH]c([S+]([O-])Cc3ncc(C)c(OC)c3C)nc2c1 (centres unmarked) [omeprazol] | 91 ± 6% | 95 ± 4% | 92 ± 5% | 95 ± 4% | – | – | no effect | –
C[C@@H]1O[C@@H](O[C@H]2C[C@@H](O)[C@]3(CO)[C@H]4[C@H](O)C[C@]5(C)[C@@H](C6=CC(=O)OC6)CC[C@]5(O)[C@@H]4CC[C@]3(O)C2)[C@H](O)[C@H](O)[C@H]1O [ouabain] | 62 ± 4^a,b % | 74 ± 9^b % | 71 ± 8^a,b % | 69 ± 9^b % | – | – | attenuated mildly estradiol effect | effect on MTT cleavage (cell viability) (hECE cells; hECE cells, treatments of Table 1): decreased MTT incorporation and staining; effect on luminal pHo in cells grown in steroid-free medium ([1]; hECE cells, no estradiol, ouabain 1 μM, 30 min, added to contra-luminal solution): mild alkalinization of luminal pHo
CC(=O)[C@H]1CC[C@H]2[C@@H]3CCC4=CC(=O)CC[C@]4(C)[C@H]3CC[C@]12C [progesterone] | 91 ± 6% | 95 ± 4% | 95 ± 5% | 95 ± 4% | no significant effect | Neither tamoxifen ICI-182780 or progesterone had any appreciable effect | – | effect on luminal pHo, alone [1, 4]: no effect
CC/C(=C(\c1ccccc1)c1ccc(OCCN(C)C)cc1)c1ccccc1 [tamoxifen] | 95 ± 3% | 96 ± 4% | 93 ± 4% | 95 ± 4% | no significant effect | Neither tamoxifen ICI-182780 or progesterone had any appreciable effect | – | luminal pHo ([1]; hECE cells in steroid-free medium, tamoxifen 10 μM alone, 24 hrs, decreased from 7.24±0.02, p<0.01): 7.15±0.02
C[C@]12CC[C@H]3[C@@H](CCC4=CC(=O)CC[C@@]43C)[C@@H]1CC[C@@H]2O [testosterone] | – | – | – | – | – | – | – | effect on luminal pHo (specificity of estrogen effect) [1, 4]: no effect
